Data set [1] deals with Human forskin fibroblasts (cell line BJ). As to the kind of experiment: in vitro cytotoxic activity, MTT assay. It counts as cell-based. Particulars: 72 hours, BJ fibroblasts at middle passage. Here is the method: In vitro cytotoxic activity of several of the 6,9-disubstituted purine derivatives of this invention against human diploid fibroblasts was determined by standard MTT assay optimized for 96-well plates. The assay is based on spectrofotometric measurement of the product of metabolic conversion of MTT by mitochondria of living cells.
Human forskin fibroblasts (cell line BJ) at middle passage were maintained in 75 cm^2 plastic tissue culture flasks and cultured in cell culture medium (DMEM with 5 g/l glucose, 2 mM glutamine, 100 U/ml penicillin, 100 μg/ml streptomycin, 10% fetal calf serum, and sodium bicarbonate).
About 5,000 cells were seeded per well of the 96-well plate. After 24 hours the cell culture medium was replaced with the cell culture medium containing a test compound. The test compounds were evaluated at six 2-fold dilutions. The highest concentration used in the present study was usually 200 μM. In the case of compounds with limited solubility in the culture medium the highest concentration was adjusted. Every test compound was examined in five replicates. Cells with the test compounds were incubated for 72 hours at 37° C. in 5% CO2 atmosphere and 100% humidity. At the end of the incubation period, the culture medium was replaced with the cell culture medium containing MTT (0.5 mg/ml) and cells were incubated for another 3 hours. The formazan formed was solubilized by DMSO and absorbance at 570 nm was measured. Ability of the tested compounds to inhibit MTT reducing activity of the cells was calculated as IC=(Acompound exposed well−mean Ablank)/(mean Acontrol well−meanAblank)×100%. IC10, the drug concentration causing 10% decrease in MTT reducing activity, was calculated from the obtained dose response curves.
In general terms: Formazan colour is commonly taken as a measure of viable cells.

A further data set relates to mouse fibroblasts NIH3T3. As to the kind of experiment: in vitro cytotoxic activity, Calcein AM microtiter assay. It is filed as cell-based. Particulars: NIH3T3, 72 hours, highest concentration 166.7 μM, read-out: GI50 NIH-3T3. Here is the method:
(§1) In vitro cytotoxic activity of several of the 6,9-disubstituted purine derivatives of this invention was determined using a microtiter assay with Calcein AM and a panel of cell lines of different histogenetic and species origin; kinetin was also examined as a control. Because only metabolically active cells cleave Calcein AM (tetraacetoxymethyl ester of calcein), the intracellular concentration of calcein corresponds to the number of vital cells in the culture.
(§2) The following cell lines were used: human osteosarcoma (HOS); breast carcinoma MCF-7; human myeloid leukemia K-562; and mouse fibroblasts NIH3T3. The cells were maintained in Nunc/Corning 80 cm^2 plastic tissue culture flasks and cultured in cell culture medium (DMEM with 5 g/l glucose, 2 mM glutamine, 100 U/ml penicillin, 100 μg/ml streptomycin, 10% fetal calf serum, and sodium bicarbonate).
(§3) The cell suspensions were prepared and diluted according to the particular cell type and the expected target cell density (2.500-30.000 cells per well based on cell growth characteristics) were added by pipette (80 μl) into 96/well microtiter plates. Inoculates were allowed a pre-incubation period of 24 hours at 37° C. and 5% CO2 for stabilization. Four-fold dilutions of the intended test concentration were added at time zero in 20 μl aliquots to the microtiter plate wells. The test compounds were generally evaluated at six 4-fold dilutions. The highest well concentration used in the present study was 166.7 μM. All samples were examined in triplicates. Incubations of cells with the tested compounds was for 72 hours at 37° C., in 5% CO2 atmosphere and 100% humidity. At the end of the incubation period, Calcein AM was added to a final concentration of 1 μg/ml incubated for 1 hour. Fluorescence intensity (FI) was measured with a Labsystem FIA Reader Fluoroscan Ascent (UK). The cell survival (GI50) was calculated using the following equation: GI50=([…])/(mean FIcontrol well−mean FIblank)×100%. The GI50 value, the drug concentration lethal to 50% of the cells, was calculated from the obtained dose response curves.

The next data set has as its system human osteosarcoma (HOS). The data set is described as above. It counts as cell-based. Particulars: 72 hours, highest concentration 166.7 μM. Here is the method:
as §1, §2, §3

The test system of another data set is breast carcinoma MCF-7. Described as above. It is filed as cell-based. Particulars: Homo sapiens, MCF7; 72 hours; highest concentration 166.7 μM. Here is the method: as §1, §2, §3
Data set [2] concerns Rat C6 glioma (ATCC No. CCL107). As to the kind of experiment: anti-inflammatory activity: isoproterenol-induced intracellular cAMP synthesis. It is filed as cell-based. Particulars: cAMP after 30 min with (−)-isoproterenol; for IC50: Rattus norvegicus, C6 glioma, 0.5 h, read-out: Anti-inflammatory Activity I50. On the procedure: Anti-inflammatory activity of several of the 6,9-disubstituted purine derivatives of this invention was determined; kinetin was also evaluated as a control. Rat C6 glioma (ATCC No. CCL107) was cultivated in monolayer in serum-free chemically defined medium containing Ham's F10/minimal essential medium (1:1 v/v), 2 mM L-glutamine, 1% (v/v) minimal essential medium vitamins (100×), 1% (v/v) minimal essential medium nonessential amino acids (100×), 100 U/ml penicillin, […], and 30 nM sodium selenite. Incubation was performed at 37° C. in a humidified atmosphere. The assays were performed in the logaritmic growth phase at a density of 2.5×10^5 cells/cm^2. Intracellular cAMP synthesis was induced by addition of 5 mM (−)-isoproterenol; various amounts of test compounds were added at the same time as the (−)-isoproterenol. After 30 min incubation at 37° C., the medium was removed and the cellular amount of cAMP was determined using the cAMP-enzyme immunoassay kit from Amersham. The I50 value was determined from a dose-response curve in duplicate.

The subject of data set [3] is Human diploid fibroblasts (HCA cells). As to the kind of experiment: inhibition of senescence, β-galactosidase staining. Particulars: test compounds about 50 μM at each passage; for Senescent Cells (%) HCA25: passage 25; for Senescent Cells (%) HCA80: passage 80. It is filed as cell-based. On the procedure:
Inhibition of senescence by several of the 6,9-disubstituted purine derivatives of this invention was determined; kinetin was also evaluated as a control. […] The medium used for the cell cultivation was removed, the cells were washed twice in PBS, and fixed in 2-3 ml of fixing solution comprised of a 2% formaldehyde and 0.2% glutaraldehyde in PBS. The cells were incubated at room temperature for 5 minutes, and then washed twice with PBS. The cells were subsequently incubated at 37° C. (without CO2) for 1 to 16 hours in 2-3 ml of the solution comprising potassium ferricyanide (5 mM), potassium ferrocyanide (5 mM), MgCl2 (2 mM), X-gal (5-bromo-4-chloro-3-indolyl-β-D-galactopyranoside) (1 mg/ml), in citric/phosphate buffer (pH 6.0). The test compounds (about 50 μM) were added to the medium at each passage. […] In this experiment, only senescent cells were stained blue due to the action of β-galactosidase on the substrate.

As a reminder, the GI50 is the concentration that inhibits growth by half. As a reminder, the melting point is the temperature, or range, at which the solid turns liquid.

On to `COc1cc(CNc2ncnc3c2ncn3C2CCCCO2)cc(OC)c1OC` (stereo not shown) [6-(3,4,5-trimethoxybenzylamino)-9-(2-tetrahydropyranyl)purine], for which the “IC10 (concentration causing 10% decrease in MTT reducing activity)” value in data set [1] (highest tested concentration 100 µmol/l) is more than 100 µM; in data set [1] (highest tested concentration 200 µmol/l) it was more than 200 µM.

With `COc1cccc(CNc2ncnc3c2ncn3C2CCCCO2)c1OC` (stereo not shown) [6-(2,3-dimethoxybenzylamino)-9-(2-tetrahydropyranyl)purine], the GI50 with mouse fibroblasts NIH3T3, with human osteosarcoma (HOS) and in the data set on breast carcinoma MCF-7 was more than 167 µM throughout.

In turn, `COc1ccc(OC)c(CNc2ncnc3c2ncn3C2CCCO2)c1` (stereo not shown) [Example 13, 6-(2,5-dimethoxybenzylamino)-9-(2-tetrahydrofuranyl)purine] returned a melting point of 103 to 104 °C.

As for `c1ccc(Nc2ncnc3c2ncn3C2CCCCO2)cc1` (stereo not shown) [6-phenylamino-9-(2-tetrahydropyranyl)purine], in data set [2], the IC50 is 45 µM and the “Anti-inflammatory Activity Effect” value is reported as “Inhibition”.

In the case of `c1coc(CNc2ncnc3c2ncn3C2CCCO2)c1` (stereo not shown) [6-furfurylamino-9-(2-tetrahydrofuranyl)purine], the melting point is 128 to 129 °C. Besides, the “IC10 (concentration causing 10% decrease in MTT reducing activity)” value in data set [1] was more than 200 µM. In data set [3], the “Senescent Cells (%) HCA50” value was 4%, the “Senescent Cells (%) HCA25” value is 3% and the “Senescent Cells (%) HCA80” value came out at 12%.

For `COc1ccc(CNc2ncnc3c2ncn3C2CCCCO2)cc1OC` (stereo not shown) [6-(3,4-dimethoxybenzylamino)-9-(2-tetrahydropyranyl)purine], the “IC10 (concentration causing 10% decrease in MTT reducing activity)” value in data set [1] was more than 200 µM.

With `COc1ccccc1CNc1ncnc2c1ncn2C1CCCO1` (stereo not shown) [Example 8, 6-(2-methoxybenzylamino)-9-(2-tetrahydrofuranyl)purine], the melting point fell in the range of 97 to 99 °C.

Regarding `COc1cc(OC)c(OC)cc1Nc1ncnc2c1ncn2C1CCCCO1` (stereo not shown) [6-(2,4,5-trimethoxyphenylamino)-9-(2-tetrahydropyranyl)purine], in data set [3], the “Senescent Cells (%) HCA50” value is on record as 4%, the “Senescent Cells (%) HCA25” value is given as 5% and the “Senescent Cells (%) HCA80” value was 25%.

`COc1ccc(CNc2ncnc3c2ncn3C2CCCO2)c(OC)c1OC` (stereo not shown) [Example 15, 6-(2,3,4-trimethoxybenzylamino)-9-(2-tetrahydrofuranyl)purine] returned a melting point of 140 to 141 °C.

Turning to `COc1ccc(CNc2ncnc3c2ncn3C2CCCCO2)c(OC)c1` (stereo not shown) [6-(2,4-dimethoxybenzylamino)-9-(2-tetrahydropyranyl)purine], in data set [1], the “IC10 (concentration causing 10% decrease in MTT reducing activity)” value is more than 25 µM. Further, in data set [3], the “Senescent Cells (%) HCA50” value came to 6%, the “Senescent Cells (%) HCA25” value is 4% and the “Senescent Cells (%) HCA80” value worked out at 25%.

For the compound `COc1cc(OC)c(OC)cc1CNc1ncnc2c1ncn2C1CCCCO1` (stereo not shown) [6-(2,4,5-trimethoxybenzylamino)-9-(2-tetrahydropyranyl)purine], the “IC10 (concentration causing 10% decrease in MTT reducing activity)” value in data set [1] was more than 200 µM.

`COc1ccc(CNc2ncnc3c2ncn3C2CCCCO2)c(OC)c1OC` (stereo not shown) [6-(2,3,4-trimethoxybenzylamino)-9-(2-tetrahydropyranyl)purine] had a melting point of 142 to 143 °C. Also, in data set [3], the “Senescent Cells (%) HCA50” value is on record as 5%, the “Senescent Cells (%) HCA25” value turned out to be 4% and the “Senescent Cells (%) HCA80” value worked out at 31%.

For the compound `COc1cc(OC)c(CNc2ncnc3c2ncn3C2CCCCO2)c(OC)c1` (stereo not shown) [6-(2,4,6-trimethoxybenzylamino)-9-(2-tetrahydropyranyl)purine], the “IC10 (concentration causing 10% decrease in MTT reducing activity)” value in data set [1] was more than 50 µM.

With `COc1cccc(CNc2ncnc3c2ncn3C2CCCCO2)c1` (stereo not shown) [6-(3-methoxybenzylamino)-9-(2-tetrahydropyranyl)purine], the melting point fell in the range of 134 to 135 °C. Moreover, the “IC10 (concentration causing 10% decrease in MTT reducing activity)” value in data set [1] was more than 100 µM. Moreover, in data set [2], the IC50 was 7 µM and the “Anti-inflammatory Activity Effect” value is reported as “Inhibition”. Also, in data set [3], the “Senescent Cells (%) HCA50” value is on record as 5%, the “Senescent Cells (%) HCA25” value was 5% and the “Senescent Cells (%) HCA80” value worked out at 24%.

As to `COc1ccc(Nc2ncnc3c2ncn3C2CCCCO2)cc1` (stereo not shown) [Example 10, 6-(4-methoxyphenylamino)-9-(2-tetrahydropyranyl)purine], the melting point is 150 to 151 °C.

`COc1ccccc1CNc1ncnc2c1ncn2C1CCCCO1` (stereo not shown) [6-(2-methoxybenzylamino)-9-(2-tetrahydropyranyl)purine] showed a melting point of 106 to 108 °C. In data set [3], the “Senescent Cells (%) HCA50” value came out at 6%, the “Senescent Cells (%) HCA25” value is reported as 4% and the “Senescent Cells (%) HCA80” value came out at 22%.

On to `COc1ccc(Nc2ncnc3c2ncn3C2CCCCO2)c(OC)c1` (stereo not shown) [6-(2,4-dimethoxyphenylamino)-9-(2-tetrahydropyranyl)purine], for which, in data set [3], the “Senescent Cells (%) HCA50” value amounted to 4%, the “Senescent Cells (%) HCA25” value was 4% and the “Senescent Cells (%) HCA80” value amounted to 29%.

Consider `COc1ccc(OC)c(CNc2ncnc3c2ncn3C2CCCCO2)c1` (stereo not shown) [Example 12, 6-(2,5-dimethoxybenzylamino)-9-(2-tetrahydropyranyl)purine], for which the melting point is 150 to 152 °C.

Consider `COc1ccc(Nc2ncnc3c2ncn3C2CCCCO2)cc1OC` (stereo not shown) [6-(3,4-dimethoxyphenylamino)-9-(2-tetrahydropyranyl)purine], for which, in data set [3], the “Senescent Cells (%) HCA50” value was found to be 7%, the “Senescent Cells (%) HCA25” value is recorded as 5% and the “Senescent Cells (%) HCA80” value was 28%.

With `COc1cccc(CNc2ncnc3c2ncn3C2CCCO2)c1` (stereo not shown) [6-(3-methoxybenzylamino)-9-(2-tetrahydrofuranyl)purine], the melting point is 87 to 88 °C. Also, in the data set with mouse fibroblasts NIH3T3, the GI50 is more than 167 µM. Further, the concentration for 50% growth inhibition (GI50) with human osteosarcoma (HOS) is more than 167 µM. Moreover, in the data set with breast carcinoma MCF-7, the GI50 was more than 167 µM.

Source of the values: patent US20130072505A1, “6,9-Disubstituted Purine Derivatives and Their Use for Treating Skin” (priority 2006, published 2013).
